Holding throughout (assay type): biochemical
The target of assay [1] is MELK (Homo sapiens (Human), UniProt Q14680). Briefly: MELK p81-based kinase assay, dose-response (IC50/Ki). As to conditions: for IC50: 40 μM ATP. As for the experimental part:
MELK and its substrate, Bcl-G were both recombinantly expressed and purified for use in screening assays (See Methods). […] 10 nM MELK 340 and 10 μM Bcl-GL in kinase assay buffer (50 mM HEPES pH 7.5, 100 mM KCl, 0.1 mM EDTA, 0.1 mM EGTA, 10 mM MgCl2, 10 μg/mL BSA) with 10 mM DTT were added to either 10 μM or 1 μM inhibitor aliquoted into 96 well plates (final 1% DMSO). The mixture was incubated at room temperature for 30 minutes prior to initiation of the assay with 40 μM γ-^32P-ATP (100-1000 CPM/pmol). 40 μL aliquots were spotted onto a p81 96 well filter plate (Unifilter, Whatman), quenched, and washed with 75 mM O-phosphoric acid 8 times, followed by a final wash with acetone for drying. Wells were then filled with scintillation fluid, sealed, and quantified using a MicroBeta TriLux liquid scintillation counter (PerkinElmer). Each inhibitor plate was assayed in duplicate, with at least 4 wells without MELK to establish background and at least 4 wells without inhibitor as a negative control. All readings were corrected for background signal based on the average counts from the wells without enzyme. Percent inhibition, defined as [100−(CPM+inhibitor/average CPM of positive controls)*100], was determined first at 10 μM inhibitor. The top 50 inhibitors were then re-screened in duplicate at 1 μM.
At set time points (0.25, 0.5, 1, 1.5, and 2 min for assays containing 10 nM MELK and 1, 2, 4, 6, and 10 min for assays containing 1 nM MELK), 30 μL aliquots were taken from each reaction and spotted onto 2×2 cm squares of p81 paper. Papers were washed 4 times in 75 mM O-phosphoric acid and once in acetone. Labeled protein was quantified by its associated CPM determined on a Packard 1500 scintillation counter at a sigma value of 2. CPM were translated into nmol ^32P incorporated using Equation 1.
Rates in the presence of each concentration of inhibitor were determined by plotting nmol ^32P incorporated vs. time. These rates were normalized to rates obtained without inhibitor, and data were plotted in terms of fractional activity. In most cases, data were fit to Equation 2. If the IC50 approached the amount of enzyme used in the assay, data were re-fit to the equation for tight-binding inhibitors (the Morrison equation, […]). […] Data were transformed as discussed and fit to Equation 3.
IC50 values were used to estimate each inhibitor's Ki using the Cheng-Prusoff relationship for competitive inhibitors (Equation 4).

In assay [2] the target is NUAK1 (Homo sapiens (Human), UniProt O60285). Nature of the assay: Selectivity dose-response kinase assay, NUAK1. Conditions: for Ki: 100 μM ATP. The text has this:
(§1) CHK1 and NUAK1 were purchased from SignalChem (Vancouver, BC). The NUAK2, CHK, and SAMS peptides were purchased from BioSyn (Lewisville, Tex.). The sequence of CHK and NUAK2 peptides are described elsewhere (Sanchez Y, et al. Science (New York, N.Y.). 1997; 277(5331):1497-1501; Scott J W, et al. Sci Rep. 2015; 5:14436). ERK2, AMPK, CAMKK2, and Ets1 were produced in house as previously described (Waas W F, Dalby K N. The Journal of biological chemistry. 2002; 277(15):12532-12540; Neumann D, et al. Protein Expr Purif. 2003; 30(2):230-237; Waas W F, Dalby K N. Protein Expr Purif. 2001; 23(1):191-197). Apparent KM values for ATP under specific assay conditions were determined using respective experimental conditions in Table 8 with varied ATP (0-1.28 mM). All selectivity dose-response assays were performed in kinase assay buffer (see Inhibitor Library Screen) with 2 mM DTT and 100 μM γ-^32P-ATP with additional conditions listed in Table 8. IC50 and KM^ATP values were subsequently used to calculate Ki (Equation 4). Relative selectivity was determined by comparing Ki^Enzyme/Ki^MELK (termed φ in Table 7). […] Standard error from linear regression data was propagated internally in Prism and taken into account in nonlinear regression to determine IC50 or Ki.

The subject of assay [3] is AMPK. Nature of the assay: Selectivity dose-response kinase assay, AMPK.
Text: as §1

For assay [4], the target named is AMPK (Rattus norvegicus (Rat), UniProt P54645). Nature of the assay: Selectivity dose-response kinase assay, AMPK. As to conditions: 100 μM ATP.
Chain of AMPK (Rattus norvegicus (Rat), UniProt P54645) (P54645 whole entry, looked up): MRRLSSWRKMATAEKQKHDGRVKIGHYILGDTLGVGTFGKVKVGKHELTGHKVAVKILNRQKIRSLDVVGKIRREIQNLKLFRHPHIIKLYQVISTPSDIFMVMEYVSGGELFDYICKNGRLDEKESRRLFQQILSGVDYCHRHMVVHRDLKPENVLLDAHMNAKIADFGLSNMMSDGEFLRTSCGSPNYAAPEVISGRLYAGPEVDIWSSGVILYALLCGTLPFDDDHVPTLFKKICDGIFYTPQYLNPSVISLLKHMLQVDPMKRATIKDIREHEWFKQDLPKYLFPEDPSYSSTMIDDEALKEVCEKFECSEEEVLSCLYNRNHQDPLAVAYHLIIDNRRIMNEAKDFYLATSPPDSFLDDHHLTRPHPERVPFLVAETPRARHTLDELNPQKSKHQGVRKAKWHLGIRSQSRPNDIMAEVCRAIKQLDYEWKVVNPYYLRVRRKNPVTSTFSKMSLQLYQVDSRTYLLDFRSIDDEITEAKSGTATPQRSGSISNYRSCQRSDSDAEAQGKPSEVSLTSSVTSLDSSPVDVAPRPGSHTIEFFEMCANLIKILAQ
Chain of AMPK (Rattus norvegicus (Rat), UniProt P54645) (P80386 whole entry partner, looked up): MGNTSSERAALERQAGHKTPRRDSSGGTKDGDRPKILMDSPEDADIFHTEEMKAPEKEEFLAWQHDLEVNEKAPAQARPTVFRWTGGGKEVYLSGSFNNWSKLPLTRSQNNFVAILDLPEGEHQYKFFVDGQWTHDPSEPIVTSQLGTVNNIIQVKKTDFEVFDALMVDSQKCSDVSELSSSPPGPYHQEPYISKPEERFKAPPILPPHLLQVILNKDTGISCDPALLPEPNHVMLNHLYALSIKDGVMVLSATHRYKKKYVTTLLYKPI
Chain of AMPK (Rattus norvegicus (Rat), UniProt P54645) (P80385 whole entry partner, looked up): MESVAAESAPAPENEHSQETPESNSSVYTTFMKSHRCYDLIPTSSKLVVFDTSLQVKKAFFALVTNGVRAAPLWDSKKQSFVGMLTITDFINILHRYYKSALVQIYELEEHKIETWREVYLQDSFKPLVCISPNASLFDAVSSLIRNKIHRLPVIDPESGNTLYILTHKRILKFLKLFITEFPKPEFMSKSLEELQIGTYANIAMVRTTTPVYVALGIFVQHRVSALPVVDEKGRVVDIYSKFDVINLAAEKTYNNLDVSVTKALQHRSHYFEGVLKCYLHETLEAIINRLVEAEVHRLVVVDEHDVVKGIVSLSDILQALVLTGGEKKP
Text: as §1

Assay [5] concerns the target CHK1 (Homo sapiens (Human), UniProt O14757). Nature of the assay: Selectivity dose-response kinase assay, CHK1. Conditions: for Ki: 100 μM ATP.
Text: as §1

Assay [6] deals with CAMKK2 (Homo sapiens (Human), UniProt Q96RR4). Nature of the assay: Selectivity dose-response kinase assay, CAMKK2. As to conditions: for Ki: 100 μM ATP.
Chain of CAMKK2 (Q96RR4 whole entry, species assumed): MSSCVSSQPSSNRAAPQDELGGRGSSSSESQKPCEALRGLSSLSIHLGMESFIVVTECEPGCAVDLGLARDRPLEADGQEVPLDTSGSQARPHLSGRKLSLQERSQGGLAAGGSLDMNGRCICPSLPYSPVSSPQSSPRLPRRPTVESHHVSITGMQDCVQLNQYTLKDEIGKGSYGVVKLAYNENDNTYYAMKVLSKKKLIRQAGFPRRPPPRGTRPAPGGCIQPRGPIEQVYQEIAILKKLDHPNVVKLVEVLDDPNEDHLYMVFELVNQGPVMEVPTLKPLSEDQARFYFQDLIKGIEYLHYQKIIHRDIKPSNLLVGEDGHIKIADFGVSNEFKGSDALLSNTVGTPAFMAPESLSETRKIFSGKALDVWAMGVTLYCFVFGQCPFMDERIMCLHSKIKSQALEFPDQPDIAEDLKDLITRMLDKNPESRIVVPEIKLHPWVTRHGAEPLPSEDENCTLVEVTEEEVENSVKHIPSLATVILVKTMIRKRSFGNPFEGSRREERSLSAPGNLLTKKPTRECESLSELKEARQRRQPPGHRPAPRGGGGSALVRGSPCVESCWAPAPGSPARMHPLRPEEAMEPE
Text: as §1

In assay [7] the target is ERK2 (Rattus norvegicus (Rat), UniProt P63086). Briefly: Selectivity dose-response kinase assay, ERK2.
Chain of ERK2 (P63086 whole entry): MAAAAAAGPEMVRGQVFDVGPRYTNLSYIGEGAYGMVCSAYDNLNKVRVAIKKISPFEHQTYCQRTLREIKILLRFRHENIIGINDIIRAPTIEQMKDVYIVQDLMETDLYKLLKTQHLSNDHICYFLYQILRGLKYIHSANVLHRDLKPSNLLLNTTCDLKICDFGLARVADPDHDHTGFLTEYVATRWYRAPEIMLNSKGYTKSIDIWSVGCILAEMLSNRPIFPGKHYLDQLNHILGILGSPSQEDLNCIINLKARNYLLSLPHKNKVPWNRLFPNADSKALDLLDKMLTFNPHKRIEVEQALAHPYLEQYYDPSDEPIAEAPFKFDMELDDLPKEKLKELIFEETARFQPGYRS
Text: as §1

Where [8] appears, read: cross-inhibition of MELK by known kinase inhibitors, read-out: IC50 ± SE.
Where [9] appears, read: fragment and intermediate potency (synthetic intermediates), read-out: Ki ± SD.
Setting [10] is: Ki calculated using Equation 4, [ATP] = 40 μM, KM app (ATP) = 6 μM.
Setting [11] is: Ki calculated using Equation 4, [ATP] = 40 μM, KM app (ATP) = 6 μM, read-out: Ki ± SE.
The mark [12] stands for this setting: indolinone derivatives, read-out: IC50.
[13] abbreviates: selectivity table, MELK, read-out: Ki.

Read-outs that look alike come from different tables or passages of the source. Bounds are passed on as bounds.

Chain of CHK1 (O14757 whole entry): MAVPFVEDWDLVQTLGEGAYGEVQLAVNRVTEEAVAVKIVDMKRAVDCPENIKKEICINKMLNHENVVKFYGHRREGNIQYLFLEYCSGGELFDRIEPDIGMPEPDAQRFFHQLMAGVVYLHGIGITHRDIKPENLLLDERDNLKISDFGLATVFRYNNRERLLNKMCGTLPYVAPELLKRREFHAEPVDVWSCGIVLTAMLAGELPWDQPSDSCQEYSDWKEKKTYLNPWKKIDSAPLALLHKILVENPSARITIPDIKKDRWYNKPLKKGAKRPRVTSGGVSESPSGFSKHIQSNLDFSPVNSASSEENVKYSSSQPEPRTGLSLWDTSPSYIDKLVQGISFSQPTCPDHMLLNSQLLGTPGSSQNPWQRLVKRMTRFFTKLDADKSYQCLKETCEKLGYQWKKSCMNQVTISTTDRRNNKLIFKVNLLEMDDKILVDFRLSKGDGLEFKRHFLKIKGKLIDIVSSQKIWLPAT
Chain of MELK (Q14680 1-340): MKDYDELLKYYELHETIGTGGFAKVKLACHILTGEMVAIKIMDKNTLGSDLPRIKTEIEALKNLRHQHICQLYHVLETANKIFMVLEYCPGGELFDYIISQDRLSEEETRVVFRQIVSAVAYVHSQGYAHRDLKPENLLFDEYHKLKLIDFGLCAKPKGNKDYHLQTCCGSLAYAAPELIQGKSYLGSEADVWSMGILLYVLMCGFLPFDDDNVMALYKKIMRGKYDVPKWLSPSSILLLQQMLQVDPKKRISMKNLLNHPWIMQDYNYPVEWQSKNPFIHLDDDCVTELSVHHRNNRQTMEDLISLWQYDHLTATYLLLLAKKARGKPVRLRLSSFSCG
Chain of NUAK1 (O60285 whole entry): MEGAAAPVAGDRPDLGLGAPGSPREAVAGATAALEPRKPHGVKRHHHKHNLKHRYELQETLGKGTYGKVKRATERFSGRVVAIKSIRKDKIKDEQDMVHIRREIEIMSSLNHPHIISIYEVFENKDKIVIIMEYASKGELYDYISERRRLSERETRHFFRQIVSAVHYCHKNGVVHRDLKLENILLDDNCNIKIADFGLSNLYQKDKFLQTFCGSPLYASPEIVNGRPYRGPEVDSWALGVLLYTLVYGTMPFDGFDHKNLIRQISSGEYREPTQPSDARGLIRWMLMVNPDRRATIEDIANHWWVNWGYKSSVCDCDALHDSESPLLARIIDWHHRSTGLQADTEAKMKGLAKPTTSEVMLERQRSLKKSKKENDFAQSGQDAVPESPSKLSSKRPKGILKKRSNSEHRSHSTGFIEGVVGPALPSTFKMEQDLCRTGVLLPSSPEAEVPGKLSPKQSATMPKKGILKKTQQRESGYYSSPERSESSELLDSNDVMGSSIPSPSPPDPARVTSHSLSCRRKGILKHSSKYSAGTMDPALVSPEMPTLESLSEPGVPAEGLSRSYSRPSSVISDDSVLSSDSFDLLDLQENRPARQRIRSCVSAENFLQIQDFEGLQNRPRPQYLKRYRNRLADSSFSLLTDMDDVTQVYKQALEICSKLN

For orientation: IC50 means the concentration that inhibits the measured activity by half. For `NC(=O)Nc1cc(-c2cccc(F)c2)sc1C(=O)N[C@@H]1CCCNC1` [AZD776, reference compound], in assay [1] (setting [8]), the IC50 was determined as 900 ± 91 nM.
`c1cc(OCCN2CCCCC2)cc(-c2n[nH]c3ccc(-c4nc[nH]n4)cc23)c1` [CC401, reference compound]: in assay [1] (setting [8]), the IC50 is 340 ± 70 nM.
Consider `CCO/C(=C1\C(=O)N(C(C)=O)c2cc(C(=O)OC)ccc21)c1ccccc1` [Compound 6, Methyl (Z)-1-acetyl-3-(ethoxy(phenyl)methylene)-2-oxoindoline-6-carboxylate], for which, in assay [1] (setting [9]), the Ki is > 5000 nM.
As to `CCO/C(=C1\C(=O)N(C(C)=O)c2ccc(C(=O)OC)cc21)c1ccccc1` [Compound 8, Methyl (Z)-1-acetyl-3-(ethoxy(phenyl)methylene)-2-oxoindoline-5-carboxylate], the Ki in assay [1] (setting [9]) is > 5000 nM.
Take `CN1CCN(CC(=O)N(C)c2ccc(N)cc2)CC1` [Compound 14, N-(4-Aminophenyl)-N-methyl-2-(4-methylpiperazin-1-yl)acetamide]: the Ki in assay [1] (setting [9]) is > 5000 nM.
For the molecule `CN1CCN(CC(=O)N(C)c2ccc(N/C(=C3\C(=O)Nc4ccccc43)c3ccccc3)cc2)CC1` [Compound 16, (Z)—N-Methyl-2-(4-methylpiperazin-1-yl)-N-(4-(((2-oxoindolin-3-ylidene)(phenyl)methyl)amino)phenyl)acetamide], the “difference in Ki compared to MELK” value in assay [2] and in assay [3] was 5-10 fold throughout. Also, the Ki was 1.7 ± 0.17 nM in assay [2]; 4.2 ± 0.3 nM in assay [4]; 10 ± 0.5 nM in assay [5]; 15 ± 1.8 nM in assay [6]; 0.47 nM in assay [1] (setting [11]); 0.47 ± 0.06 nM in assay [1] (setting [13]). Besides, the “Ki ± SE” value in assay [1] (setting [10]) is given as “subnanomolar”. In addition, in assay [1] (setting [12]), the IC50 was determined as 3.6 ± 0.4 nM.
Regarding `CC(=O)c1ccc2c(c1)/C(=C(/Nc1ccc(N(C)C(=O)CN3CCN(C)CC3)cc1)c1ccccc1)C(=O)N2` [Compound 18, (Z)—N-(4-(((5-Acetyl-2-oxoindolin-3-ylidene)(phenyl)methyl)amino)phenyl)-N-methyl-2-(4-methylpiperazin-1-yl)acetamide], the Ki in assay [1] (setting [11]) was 46 ± 4.6 nM. For the same molecule, in assay [1] (setting [12]), the IC50 was determined as 354 ± 35 nM.
For `CN1CCN(CC(=O)N(C)c2ccc(N/C(=C3\C(=O)Nc4cc(C(=O)O)ccc43)c3ccccc3)cc2)CC1` [Compound 20, (Z)-3-(((4-(N-Methyl-2-(4-methylpiperazin-1-yl)acetamido)phenyl)amino)(phenyl)methylene)-2-oxoindoline-6-carboxylic acid], the Ki in assay [1] (setting [11]) was 149 ± 22 nM. The IC50 in assay [1] (setting [12]) stood at 1140 ± 168 nM.
As to `CN1CCN(CC(=O)N(C)c2ccc(N/C(=C3\C(=O)Nc4ccc(C(=O)O)cc43)c3ccccc3)cc2)CC1` [Compound 21, (Z)-3-(((4-(N-Methyl-2-(4-methylpiperazin-1-yl)acetamido)phenyl)amino)(phenyl)methylene)-2-oxoindoline-5-carboxylic acid], the “φ = Ki Enzyme/Ki MELK” value in assay [2] stood at 13 ± 0.2; in assay [3] it was 7.2 ± 0.2; in assay [7], 28000 ± 0.2; in assay [5], 120 ± 0.1; in assay [6], 125 ± 0.2; in assay [1] (MELK), 1.00. Moreover, the Ki in assay [2] was 8.6 ± 1.6 nM; in assay [4], 4.9 ± 0.6 nM; in assay [7] (100 μM ATP), 19000 ± 3800 nM; in assay [5] it was 81 ± 5.6 nM; in assay [6] it was 85 ± 9.2 nM; in assay [1] (setting [11]), 0.68 ± 0.07 nM. Moreover, the Ki in assay [1] (setting [13]) was determined as 0.68 ± 0.07 nM. Moreover, the “difference in relative Ki compared to MELK” value in assay [7], in assay [5] and in assay [6] was > 100 fold each time. For the same molecule, the “Ki ± SE” value in assay [1] (setting [10]) was “subnanomolar”. Moreover, in assay [1] (setting [12]), the IC50 was 5.2 ± 0.5 nM.
As to `CN(C)CCCNC(=O)c1ccc2c(c1)NC(=O)/C2=C(\Nc1ccc(N(C)C(=O)CN2CCN(C)CC2)cc1)c1ccccc1` [Compound 22, (Z)—N-(3-(Dimethylamino)propyl)-3-(((4-(N-methyl-2-(4-methylpiperazin-1-yl)acetamido)phenyl)amino)(phenyl)methylene)-2-oxoindoline-6-carboxamide], the Ki in assay [1] (setting [11]) is 358 ± 71 nM. Also, the IC50 in assay [1] (setting [12]) turned out to be 2700 ± 540 nM.
Consider `CN1CCN(CC(=O)N(C)c2ccc(N/C(=C3\C(=O)Nc4cc(C(=O)NCCCN)ccc43)c3ccccc3)cc2)CC1` [Compound 23, (Z)—N-(3-Aminopropyl)-3-(((4-(N-methyl-2-(4-methylpiperazin-1-yl)acetamido)phenyl)amino)(phenyl)methylene)-2-oxoindoline-6-carboxamide], for which the IC50 in assay [1] (setting [12]) was > 5000 nM.
On to `CNC(=O)c1ccc2c(c1)/C(=C(/Nc1ccc(N(C)C(=O)CN3CCN(C)CC3)cc1)c1ccccc1)C(=O)N2` [Compound 24, (Z)—N-Methyl-3-(((4-(N-methyl-2-(4-methylpiperazin-1-yl)acetamido)phenyl)amino)(phenyl)methylene)-2-oxoindoline-5-carboxamide], for which the Ki in assay [1] (setting [11]) is 2.3 nM. In assay [1] (setting [12]), the IC50 stood at 18 ± 3.8 nM.
Take `CC(C)(C)c1nc2c3ccc(F)cc3c3c(=O)[nH]ccc3c2[nH]1` [Compound 420099, reference compound]: the IC50 in assay [1] (setting [8]) was found to be 330 ± 37 nM.
For `O=C1Nc2ccc3scnc3c2/C1=C/c1cnc[nH]1` [Compound 527450, reference compound], the IC50 in assay [1] (setting [8]) amounted to 720 ± 100 nM.
Take `CCN(CC)CCNC(=O)c1c(C)[nH]c(/C=C2\C(=O)Nc3ccc(Cl)cc32)c1C` [Compound 572660, reference compound]: the IC50 in assay [1] (setting [8]) was found to be 760 ± 190 nM.
For `N=C(N)NCCNS(=O)(=O)c1cccc2cnccc12` [HA-1004, reference compound], the IC50 in assay [1] (setting [8]) was 440 ± 210 nM.
Take `CCS(=O)(=O)Nc1ccc2c(c1)/C(=C(/Nc1ccc(CN3CCCCC3)cc1)c1ccccc1)C(=O)N2` [Hesperadin, reference compound]: the IC50 in assay [1] (setting [8]) was found to be 225 ± 50 nM.
For `Cc1ccc([N+](=O)[O-])cc1S(=O)(=O)N(C)/N=C/c1cnc2ccc(Br)cn12` [PIK75, reference compound], the IC50 in assay [1] (setting [8]) is 400 ± 72 nM.
